Laboratory results as given in article PMC5623949, “Exploiting the 2-Amino-1,3,4-thiadiazole Scaffold To Inhibit Trypanosoma brucei Pteridine Reductase in Support of Early-Stage Drug Discovery” (ACS Omega, 2017).
Where two headings read alike, the source gives them in different places.

Assays:
[1] = target: CYP2C19 (Homo sapiens, UniProt P33261); assay: in vitro; design: cytochrome P450 isoform inhibition liability assay
Description: (§1) Independent of the effect of any antiparasitic potential of compounds, they were evaluated using a panel of early-toxicity assays comprising cytotoxicity (A549, human lung adenocarcinoma epithelial cell line and WI-38, human lung fibroblasts), mitochondrial toxicity (786-O, human renal carcinoma cell line), hERG inhibition,[31] cytochrome P450 inhibition (CYP1A2, CYP2C9, CYP2C19, CYP2D6, and CYP3A4),[31] and Aurora B kinase inhibition. […] For the two compounds active against TbPTR1 (4m and 4o), IC50 against hERG, cytochrome P450, and mitochondrial toxicity were determined (reported in Supporting Information). We observed that the dose of compounds 4m, 4o, 4c, and 3k was 4 μM in the potentiation assays. […] In the case of hERG, CYP2D6, CYP2A9, CYP2C19, and mitochondrial toxicity, there is a selectivity index of around 3–4 fold, thus showing an acceptable profile.  Figure 10 Summary heat map of the in vitro assays to determine possible liability issues for all synthesized compounds. Assays were performed to assess inhibition of hERG and five CYP isoforms (1A2, 2C9, 2C19, 2D6, and 3A4), growth inhibition of A549 and W1-38 cell lines, and mitochondrial toxicity at 10 μM. The hDHFR inhibition was determined at 100 μM. The data, expressed as percentage values, were organized by adopting a color code for rapid and intuitive visualization. The ideal compound should have all tiles blue, indicating a safe toxicological profile for progressing into the development pipeline. The cells are colored from blue (100% of cell growth at the tested concentration) to red (0% of cell growth at the tested concentration) for A549 and W1-38 and from blue (0% of inhibitory activity at the tested concentration) to red (100% of inhibitory activity at the tested concentration) for CYP isoforms, hERG, hDHFR, and mitochondrial toxicity.

[2] = target: T1, CYP1A2 (Homo sapiens, UniProt P05177); assay: in vitro; design: cytochrome P450 isoform inhibition liability assay
T1 sequence (P05177 1-516): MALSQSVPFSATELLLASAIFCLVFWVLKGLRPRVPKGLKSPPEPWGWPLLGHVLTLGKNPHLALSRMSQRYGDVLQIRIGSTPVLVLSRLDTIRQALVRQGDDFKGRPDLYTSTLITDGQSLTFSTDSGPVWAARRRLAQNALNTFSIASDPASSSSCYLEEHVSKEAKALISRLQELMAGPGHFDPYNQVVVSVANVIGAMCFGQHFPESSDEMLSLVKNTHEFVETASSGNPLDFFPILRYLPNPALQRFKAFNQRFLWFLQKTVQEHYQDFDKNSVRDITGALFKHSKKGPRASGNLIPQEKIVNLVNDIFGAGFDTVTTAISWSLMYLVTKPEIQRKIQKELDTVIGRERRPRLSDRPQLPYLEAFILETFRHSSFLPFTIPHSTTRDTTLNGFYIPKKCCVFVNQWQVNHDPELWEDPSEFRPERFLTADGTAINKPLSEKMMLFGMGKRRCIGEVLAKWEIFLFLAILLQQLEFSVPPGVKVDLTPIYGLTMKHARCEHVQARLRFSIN
Description: as §1

[3] = target: CYP2C9 (Homo sapiens, UniProt P11712); assay: in vitro; design: cytochrome P450 isoform inhibition liability assay
CYP2C9, sequence (P11712 whole entry, canonical isoform): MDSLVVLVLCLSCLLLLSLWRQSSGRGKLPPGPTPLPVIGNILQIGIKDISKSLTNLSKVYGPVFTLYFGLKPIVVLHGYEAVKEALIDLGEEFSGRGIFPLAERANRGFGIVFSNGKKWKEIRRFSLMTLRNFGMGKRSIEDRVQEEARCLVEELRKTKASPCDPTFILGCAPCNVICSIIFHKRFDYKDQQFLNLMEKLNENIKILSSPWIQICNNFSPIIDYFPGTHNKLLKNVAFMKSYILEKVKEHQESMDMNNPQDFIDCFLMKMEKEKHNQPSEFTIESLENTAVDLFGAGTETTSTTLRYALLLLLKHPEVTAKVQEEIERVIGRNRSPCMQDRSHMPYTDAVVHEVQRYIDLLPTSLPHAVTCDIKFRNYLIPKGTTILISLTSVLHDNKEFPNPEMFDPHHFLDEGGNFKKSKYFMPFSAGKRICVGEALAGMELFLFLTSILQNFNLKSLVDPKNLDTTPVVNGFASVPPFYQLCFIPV
Description: as §1

[4] = target: CYP3A4 (Homo sapiens, UniProt P08684); assay: in vitro; design: cytochrome P450 isoform inhibition liability assay
CYP3A4, sequence (P08684 whole entry, canonical isoform): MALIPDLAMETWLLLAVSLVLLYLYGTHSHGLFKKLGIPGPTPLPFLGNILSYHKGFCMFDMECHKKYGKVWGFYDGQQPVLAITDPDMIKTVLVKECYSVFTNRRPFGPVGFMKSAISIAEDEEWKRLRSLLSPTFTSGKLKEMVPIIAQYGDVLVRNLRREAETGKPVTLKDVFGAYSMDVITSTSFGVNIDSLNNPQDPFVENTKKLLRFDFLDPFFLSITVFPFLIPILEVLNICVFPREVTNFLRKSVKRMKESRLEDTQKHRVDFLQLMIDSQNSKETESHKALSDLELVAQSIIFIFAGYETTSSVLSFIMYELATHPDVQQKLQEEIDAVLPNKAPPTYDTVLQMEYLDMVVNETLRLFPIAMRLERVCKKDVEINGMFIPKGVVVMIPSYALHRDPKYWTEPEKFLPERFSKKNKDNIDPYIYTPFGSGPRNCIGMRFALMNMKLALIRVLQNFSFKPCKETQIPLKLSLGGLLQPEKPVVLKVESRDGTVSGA
Description: as §1

[5] = target: CYP2D6 (Homo sapiens, UniProt P10635); assay: in vitro; design: cytochrome P450 isoform inhibition liability assay
CYP2D6, sequence (P10635 whole entry, canonical isoform): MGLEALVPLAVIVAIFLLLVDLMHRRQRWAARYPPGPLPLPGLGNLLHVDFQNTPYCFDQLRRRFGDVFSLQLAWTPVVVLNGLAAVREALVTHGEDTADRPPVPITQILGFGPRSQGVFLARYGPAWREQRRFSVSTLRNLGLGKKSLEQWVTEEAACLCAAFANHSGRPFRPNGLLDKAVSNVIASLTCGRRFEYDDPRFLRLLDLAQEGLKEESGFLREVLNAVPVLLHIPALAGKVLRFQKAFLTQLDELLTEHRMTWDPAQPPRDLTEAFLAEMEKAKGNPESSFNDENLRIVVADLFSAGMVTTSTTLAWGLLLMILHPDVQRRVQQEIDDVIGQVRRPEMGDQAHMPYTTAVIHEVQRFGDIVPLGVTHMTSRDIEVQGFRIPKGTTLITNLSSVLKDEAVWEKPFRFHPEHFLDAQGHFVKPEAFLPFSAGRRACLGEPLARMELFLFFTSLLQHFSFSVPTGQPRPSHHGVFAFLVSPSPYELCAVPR
Description: as §1

[6] = in vitro; design: cytotoxicity, per cent cell growth of A549 cells; details: human, a549 cells; read-out: % cell growth A549 at 10uM
Description: as §1

[7] = target: T2, hERG (Homo sapiens, UniProt Q12809); design: hERG inhibition liability assay
T2 construct: gene KCNH2
T2 sequence (Q12809 whole entry): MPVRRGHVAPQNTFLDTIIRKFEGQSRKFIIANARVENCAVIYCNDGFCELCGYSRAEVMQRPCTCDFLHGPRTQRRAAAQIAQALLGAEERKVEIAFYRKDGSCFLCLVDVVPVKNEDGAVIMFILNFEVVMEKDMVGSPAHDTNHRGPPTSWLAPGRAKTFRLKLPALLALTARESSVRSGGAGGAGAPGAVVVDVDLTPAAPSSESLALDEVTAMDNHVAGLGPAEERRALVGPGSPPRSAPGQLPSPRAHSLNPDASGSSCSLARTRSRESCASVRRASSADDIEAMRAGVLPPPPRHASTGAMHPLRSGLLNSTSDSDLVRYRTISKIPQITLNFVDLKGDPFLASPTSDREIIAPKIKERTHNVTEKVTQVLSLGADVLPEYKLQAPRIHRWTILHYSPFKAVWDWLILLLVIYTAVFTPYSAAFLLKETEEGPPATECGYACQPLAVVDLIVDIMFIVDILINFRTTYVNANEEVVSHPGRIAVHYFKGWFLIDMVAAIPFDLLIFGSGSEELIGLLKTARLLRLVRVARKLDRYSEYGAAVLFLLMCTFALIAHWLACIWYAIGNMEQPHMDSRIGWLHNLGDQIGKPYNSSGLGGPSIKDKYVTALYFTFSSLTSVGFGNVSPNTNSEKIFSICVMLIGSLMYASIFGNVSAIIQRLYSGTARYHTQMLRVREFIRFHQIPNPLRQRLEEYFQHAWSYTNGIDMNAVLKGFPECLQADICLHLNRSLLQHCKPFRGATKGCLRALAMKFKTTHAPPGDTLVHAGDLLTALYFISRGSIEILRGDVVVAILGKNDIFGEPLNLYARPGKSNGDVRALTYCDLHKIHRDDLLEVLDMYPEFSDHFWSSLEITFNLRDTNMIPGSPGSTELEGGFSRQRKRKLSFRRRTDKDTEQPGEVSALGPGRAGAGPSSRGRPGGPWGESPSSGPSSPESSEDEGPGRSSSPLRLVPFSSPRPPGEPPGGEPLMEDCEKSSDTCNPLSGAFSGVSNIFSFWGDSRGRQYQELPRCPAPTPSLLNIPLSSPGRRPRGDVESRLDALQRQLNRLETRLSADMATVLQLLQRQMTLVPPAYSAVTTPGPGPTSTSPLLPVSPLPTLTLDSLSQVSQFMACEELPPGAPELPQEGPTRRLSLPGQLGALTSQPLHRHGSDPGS
Description: as §1

[8] = system: 786-O; assay: cells; design: mitochondrial toxicity in 786-O renal carcinoma cells; details: Homo sapiens, 786-0; mitochondrial toxicity
Description: as §1

[9] = in vitro; design: cytotoxicity, per cent cell growth of WI-38 fibroblasts; details: human, wi-38 cells; read-out: % cell growth W1-38 at 10uM
Description: as §1

[10] = target: T3, TbPTR1 (Trypanosoma brucei brucei, UniProt O76290); assay: biochemical; details: 50 μM compound; for inhibition at 50 µM: read-out: % Inhibition TbPTR1 at 50 μM
T3 construct: made in house
T3 sequence (O76290 1-268): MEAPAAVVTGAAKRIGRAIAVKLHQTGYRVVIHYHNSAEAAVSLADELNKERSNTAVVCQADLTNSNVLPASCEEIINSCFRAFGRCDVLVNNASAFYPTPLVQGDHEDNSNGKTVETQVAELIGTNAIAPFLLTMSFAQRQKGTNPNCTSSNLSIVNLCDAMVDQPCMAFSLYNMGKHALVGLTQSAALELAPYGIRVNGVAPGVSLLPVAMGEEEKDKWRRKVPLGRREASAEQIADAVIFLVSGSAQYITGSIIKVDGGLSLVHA

[11] = system: T. b. brucei Lister 427 bloodstream forms; assay: In vitro activity against T. brucei (HTS SYBR Green I growth inhibition assay); format: cell-based, Trypanosoma brucei brucei; details: Trypanosoma brucei, standard deviation within ±10% of the value; for inhibition at 50 µM: read-out: % Inhibition T. brucei at 50 μM

CYP2C19, sequence (P33261 whole entry, canonical isoform): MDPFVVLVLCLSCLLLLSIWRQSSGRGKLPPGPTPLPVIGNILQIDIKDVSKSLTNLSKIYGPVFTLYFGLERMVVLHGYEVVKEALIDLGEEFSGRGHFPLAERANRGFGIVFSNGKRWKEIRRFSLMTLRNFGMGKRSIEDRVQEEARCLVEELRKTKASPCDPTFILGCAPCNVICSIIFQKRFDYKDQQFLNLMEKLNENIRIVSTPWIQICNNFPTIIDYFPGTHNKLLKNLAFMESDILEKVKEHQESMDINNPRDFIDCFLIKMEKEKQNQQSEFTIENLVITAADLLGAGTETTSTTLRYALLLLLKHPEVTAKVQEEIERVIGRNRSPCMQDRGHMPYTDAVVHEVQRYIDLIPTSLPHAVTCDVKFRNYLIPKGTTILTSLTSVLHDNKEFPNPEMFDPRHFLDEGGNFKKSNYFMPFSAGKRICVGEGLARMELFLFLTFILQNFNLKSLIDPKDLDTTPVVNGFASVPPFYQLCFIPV

SMILES	inhibition at 10 µM [1] [%]	inhibition at 10 µM [2] [%]	inhibition at 10 µM [3] [%]	inhibition at 10 µM [4] [%]	inhibition at 10 µM [5] [%]	viability at 10 µM [6] [%]	inhibition at 10 µM [7] [%]	inhibition at 10 µM [8] [%]	viability at 10 µM [9] [%]	inhibition at 50 µM [10] [%]	inhibition at 50 µM [11] [%]	% Inhibition TbPTR1 at 50 μM [10]	EC50 ([11]; read-out: EC50 T. brucei) [nM]
CN(C)C(=O)NCc1ccc(-c2nnc(N)s2)cc1 [1p]	9.4 ± 6.5	20.9 ± 3.3	36.6 ± 0.6	15.1 ± 9.9	18.5 ± 2.7	108.7 ± 0.45	6.4 ± 1.9	11.6 ± 10.1	118 ± 24.8	5.3 ± 0.9	< 0	–	–
Nc1nnc(CCc2ccccc2)s1 [3g]	-36.5 ± 6.1	-14.9 ± 5.7	-10.5 ± 3.7	-25.6 ± 10.5	-43.9 ± 4.1	109 ± 13.4	-1.9 ± 1.3	4 ± 16.1	101 ± 17.5	7.6 ± 0.3	< 0	–	–
CN(C)C(=O)NCc1cccc(-c2nnc(N)s2)c1 [1q]	19.6 ± 8.2	7 ± 1.9	19.7 ± 3.6	4.5 ± 11.4	20.4 ± 3.5	–	–	–	–	2.5 ± 0.2	1.2	–	–
Nc1nnc(NCc2ccc(F)cc2)s1 [4g]	-13.9 ± 11.1	24.9 ± 2.6	22.9 ± 1.3	11.2 ± 3.1	103.1 ± 0.6	110 ± 8	96.9 ± 6.1	-8.3 ± 12.6	97.1 ± 30.2	14.7 ± 1.7	33	–	–
Nc1nnc(Cc2cccs2)s1 [3d]	-17.4 ± 7.4	21.7 ± 3.4	16 ± 2	17.2 ± 4.1	29.6 ± 4	112 ± 4.9	16 ± 8.7	-2.9 ± 14.3	105 ± 20.6	18.5 ± 0.6	7.5	–	–
COc1ccc(CNc2nnc(N)s2)cc1OC [4j]	5.7 ± 7.4	23.9 ± 4.8	26.2 ± 1.3	18.6 ± 4.2	36.5 ± 4.4	118 ± 3.9	35.7 ± 7.1	-8.3 ± 4.5	129 ± 57.4	8.4 ± 1.2	45.1	–	–
Nc1nnc(NCc2ccccc2Cl)s1 [4d]	-13.3 ± 10.3	28.2 ± 1.2	13.9 ± 3.5	10.1 ± 10.7	90.3 ± 0.9	115 ± 8.9	15.2 ± 3.6	-1.6 ± 9.3	55.4 ± 2.4	21.8 ± 2.2	< 0	–	–
NCc1ccc(-c2nnc(N)s2)cc1 [1b]	-17.9 ± 3.7	-5.3 ± 10.2	-7.9 ± 0.8	23.7 ± 2.2	-44.2 ± 10.4	114 ± 1.2	5.7 ± 3.9	4.5 ± 2.5	98.7 ± 11.4	7.7 ± 0.6	93	did not show inhibition	800
